For one assay, the target named is T1, inhibitory DREADD (Homo sapiens, UniProt P08173, A203G/Y113C).
T1 construct: host or cells: ILA CRH+ neurons of CRH-Cre mice, Cre-dependent AAV2/8 transduction in vivo
T1 sequence (P08173 1-479 Y113C/A203G): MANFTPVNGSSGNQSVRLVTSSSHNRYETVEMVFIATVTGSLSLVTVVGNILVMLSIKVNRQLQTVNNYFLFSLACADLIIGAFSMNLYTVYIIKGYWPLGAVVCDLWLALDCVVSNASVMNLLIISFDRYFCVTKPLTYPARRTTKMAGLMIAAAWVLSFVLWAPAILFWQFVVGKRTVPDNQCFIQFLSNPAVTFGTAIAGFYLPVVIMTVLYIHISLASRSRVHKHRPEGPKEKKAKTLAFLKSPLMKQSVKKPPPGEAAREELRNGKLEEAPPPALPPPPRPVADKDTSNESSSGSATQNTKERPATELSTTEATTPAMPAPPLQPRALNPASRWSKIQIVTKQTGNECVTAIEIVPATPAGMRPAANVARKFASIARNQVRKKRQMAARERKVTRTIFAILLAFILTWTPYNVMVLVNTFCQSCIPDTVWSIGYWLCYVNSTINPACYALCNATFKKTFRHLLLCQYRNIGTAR
The assay is described as follows: Social novelty preference test with chemogenetic silencing of ILA CRH cells. Format: in vivo, CRH-Cre mice. As to conditions: CNO 5 mg/kg intra-peritoneally 30 min prior to the learning trial; iDREADD in ILA CRH cells. How it is done: Injection coordinates were the following (in mm from Bregma): AP: 1.65, ML: ±0.1, DV: -2.6. Injections were done bilaterally with 100 nl injected per site. […]
Social novelty preference test. […] Using automatic tracking of the test mice (ANY-Maze, Stoelting), the inventors quantified the time the test mice spent in the immediate area surrounding each cup - and therefore, interacting with each stimulus mice - during learning and recall. Using the interaction time from the recall trial, the inventors calculated a discrimination index for social novelty preference as the following: D! = (time with novel - time with familiar) / total interaction time. […] The inventors also calculated the total time spent interacting with stimulus mice during each trial in order to verify that the sociability drive was not affected. […]

The target in another assay is T2, excitatory DREADD (Homo sapiens, UniProt P20309, A239G/Y149C).
T2 construct: host or cells: ILA CRH+ neurons of CRH-Cre mice, Cre-dependent AAV2/5 transduction in vivo
T2 sequence (P20309 whole entry Y149C/A239G): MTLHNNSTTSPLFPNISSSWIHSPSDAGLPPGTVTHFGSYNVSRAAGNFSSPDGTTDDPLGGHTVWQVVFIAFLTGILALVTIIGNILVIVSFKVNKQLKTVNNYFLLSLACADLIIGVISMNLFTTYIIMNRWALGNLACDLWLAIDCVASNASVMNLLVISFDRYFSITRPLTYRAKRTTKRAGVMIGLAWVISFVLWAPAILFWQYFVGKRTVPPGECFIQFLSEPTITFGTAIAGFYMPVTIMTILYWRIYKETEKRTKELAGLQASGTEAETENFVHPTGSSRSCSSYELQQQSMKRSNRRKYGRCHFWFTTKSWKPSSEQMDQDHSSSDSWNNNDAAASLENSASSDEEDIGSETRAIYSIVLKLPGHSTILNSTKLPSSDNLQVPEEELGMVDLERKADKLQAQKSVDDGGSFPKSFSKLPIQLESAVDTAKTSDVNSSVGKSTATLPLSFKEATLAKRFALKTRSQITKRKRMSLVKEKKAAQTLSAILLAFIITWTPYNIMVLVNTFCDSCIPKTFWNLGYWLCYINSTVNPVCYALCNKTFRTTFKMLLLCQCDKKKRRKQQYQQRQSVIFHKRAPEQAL
The assay can be described thus: Repetitive social presentation test with chemogenetic activation of ILA CRH cells. As to conditions: CNO; excitatory DREADD in ILA CRH neurons. It counts as in vivo, CRH-Cre mice. How it is done: Injection coordinates were the following (in mm from Bregma): AP: 1.65, ML: ±0.1, DV: -2.6. Injections were done bilaterally with 100 nl injected per site. AAV2/DJ hSyn.FLEX.mGFP.2A.Synatophysin-mRuby (Addgene #71760 prepared by the Stanford University vector core #1930), AAV2/8 hSyn.DIO.hM4D(Gi)-mCherry (Addgene #44362-AAV8), AAV2/8 hSyn.DIO.mCherry (Addgene #50459-AAV8), AAV2/5-hSyn-DIO-hM3D(Gq)-mCherry (Addgene, #44361-AAV5), AAV2/5 hsyn.DIO.mCherry (Addgene #50459-AAV5), AAV2/1 syn.FLEX.GCaMP6f.WPRE.SV40 (Addgene #100833-AAV1), AAV2/9 CMV-DIO-(mCherry-U6)-shRNA(anti-Crh) (VTA brain), AAV2/9 CMV-DIO-(mCherry-U6)-shRNA(scrambled) (VTA brain), AAV2/9 hSyn.FLEX.dsRed-shRNA(Vgat) (Addgene #67845), AAV 2/9 hSyn-flex-dsRed-shRNA(scrambled) (Addgene #71383), AAV2/2 CAG.FLEX.ArchT-tdTomato (Addgene #28305 prepared by the University of North Carolina vector core) and AAV2/2 CAG.FLEX.tdTomato (Addgene #28306 prepared by the University of North Carolina vector core) were injected into the ILA of CRH-Cre mice. Viruses expressed for a minimum of 2 weeks.
Repetitive social presentation test. […] Films were scored offline for social interaction by a trained observer blind to the experimental condition. Sniffing of any part of the body, allo-grooming and close following counted as social interaction. […]

The record followed here is EP4516309A1, “CRHR1 AGONISTS FOR USE IN THE TREATMENT OF SOCIAL ANXIETY DISORDERS” (Consejo Superior de Investigaciones Cientificas, priority 2023, dated 2025).

For `C[N+]1([O-])CCN(C2=Nc3cc(Cl)ccc3Nc3ccccc32)CC1` [CNO, clozapine N-oxide], at inhibitory DREADD, the “discrimination index for social novelty preference” value is listed as “not different from zero”; the “exploration of novel and familiar mice during recall” value is “explored the novel and familiar mice to the same extent”. Further, the “decrease in social interaction” value at excitatory DREADD is listed as “slightly facilitated”.
